Experimental data published in article PMC11191095, “QSAR Reveals Decreased Lipophilicity of Polar Residues Determines the Selectivity of Antimicrobial Peptide Activity” (ACS Omega, 2024).
In brackets after ≈: the same amount, converted by molar mass. Where a SMILES comes first, the peptide text is derived from it.

Assays:
Test in all cases: microbe, parasite or virus in culture
[1] = system: E. coli LEC001; type: cell-based, Escherichia coli; details: for MIC: Escherichia coli, LEC001, 20 h, read-out: Modal MIC
Description: (§1) Antimicrobial activity was evaluated against a panel of 18 pathogens consisting of eight Gram-negative strains (E. coli NCTC 12923, E. coli LEC001, Pseudomonas aeruginosa PAO1, P. aeruginosa NCTC 13437, Acinetobacter baumannii ATCC 17978, A. baumannii AYE, Klebsiella pneumoniae M6, K. pneumoniae NCTC 13368), four Gram-positive strains (Staphylococcus aureus ATCC 9144, S. aureus NCTC 13616, S. aureus USA300, S. aureus 1199B) and six fungi (Candida auris TDG 1912, C. albicans NCPF 8018, C. krusei NCPF 3876, C. tropicalis NCPF 8760, and C. parapsilosis NCPF 3209). Pathogens were grown in noncation adjusted Mueller Hinton broth (MHB, for bacteria) or Roswell Park Memorial Institute (RPMI 1640) + 2% glucose (for fungi) at 37 °C with 180 rpm shaking and maintained on solid media (tryptic soy agar for bacteria and Sabouraud dextrose agar for fungi). For an antibiogram, see Suppl.
(§2) The 46 peptides were serially diluted (128 to 2 μg/mL) in media down polypropylene 96-well plates. Bacteria or fungi, diluted from an overnight culture to an OD600 of 0.01, were added to the serially diluted peptides at a 1:1 ratio resulting in a starting cell density of ∼5 × 10^5 CFU/mL. Plates were incubated at 37 °C for 20 h, and the optical density was determined spectrophotometrically at 600 nm. Minimum inhibition concentrations (MICs) were determined from a minimum of three biological repeats and are reported in μg/mL as well as μM. […] The MIC50 or MIC90 is defined as the lowest peptide concentration that results in 50% or 90% growth inhibition over a 20 h treatment period, respectively.

[2] = system: E. coli NCTC 12923; type: cell-based, Escherichia coli; details: for MIC: Escherichia coli, NCTC12923, 20 h, read-out: Modal MIC
Description: as §1, §2

[3] = system: P. aeruginosa NCTC 13437; type: cell-based, Pseudomonas aeruginosa; details: for MIC: Pseudomonas aeruginosa, NCTC13437, 20 h, read-out: Modal MIC; for Modal MIC: P. aeruginosa NCTC 13437 (R)
Description: as §1, §2

[4] = system: P. aeruginosa PAO1; type: cell-based, Pseudomonas aeruginosa; details: for MIC: Pseudomonas aeruginosa, PAO1, 20 h, read-out: Modal MIC; for Modal MIC: P. aeruginosa PAO1 (S)
Description: as §1, §2

[5] = system: A. baumannii ATCC 17978; type: cell-based, Acinetobacter baumannii; details: for MIC: Acinetobacter baumannii, ATCC17978, 20 h, read-out: Modal MIC
Description: as §1, §2

[6] = system: A. baumannii AYE; type: cell-based, Acinetobacter baumannii; details: for MIC: Acinetobacter baumannii, 20 h, read-out: Modal MIC
Description: as §1, §2

[7] = system: K. pneumoniae M6; type: cell-based, Klebsiella pneumoniae; details: for MIC: Klebsiella pneumoniae, M6, 20 h, read-out: Modal MIC
Description: as §1, §2

[8] = system: K. pneumoniae NCTC 13368; type: cell-based, Klebsiella pneumoniae; details: for MIC: Klebsiella pneumoniae, NCTC13368, 20 h, read-out: Modal MIC
Description: as §1, §2

[9] = system: S. aureus (MRSA) 1199B; type: cell-based, Staphylococcus aureus; details: for MIC: Staphylococcus aureus, MRSA, 20 h, read-out: Modal MIC
Description: as §1, §2

[10] = system: S. aureus (MRSA) NCTC 13616; type: cell-based, Staphylococcus aureus; details: for MIC: Staphylococcus aureus, 20 h, read-out: Modal MIC
Description: as §1, §2

[11] = system: S. aureus (MRSA) USA300; type: cell-based, Staphylococcus aureus; details: for MIC: Staphylococcus aureus, 20 h, read-out: Modal MIC
Description: as §1, §2

[12] = system: S. aureus (MSSA) ATCC 9144; type: cell-based, Staphylococcus aureus; details: for MIC: Staphylococcus aureus, 20 h, read-out: Modal MIC
Description: as §1, §2

[13] = system: C. auris TDG 1912; type: cell-based, Candida auris; details: C. auris TDG 1912
Description: as §1, §2

[14] = system: C. albicans NCPF 3281; type: cell-based; details: C. albicans NCPF 3281
Description: as §1, §2

[15] = system: C. glabrata NCPF 8018; type: cell-based; details: C. glabrata NCPF 8018
Description: as §1, §2

[16] = system: C. krusei NCPF 3876; type: cell-based; details: C. krusei NCPF 3876; shown in µM
Description: as §1, §2

[17] = system: C. parapsilosis NCPF 3209; type: cell-based; details: C. parapsilosis NCPF 3209
Description: as §1, §2

[18] = system: C. tropicalis NCPF 8760; type: cell-based; details: C. tropicalis NCPF 8760; shown in µM
Description: as §1, §2

[19] = MHB, 37 °C, 20 h, OD600, min. three biological repeats
[20] = 50% growth inhibition, RPMI 1640 + 2% glucose, 37 °C, 20 h
[21] = 90% growth inhibition, RPMI 1640 + 2% glucose, 37 °C, 20 h

Work on `CC(C)(O/N=C(\C(=O)N[C@@H]1C(=O)N2C(C(=O)[O-])=C(C[n+]3ccccc3)CS[C@H]12)c1csc(N)n1)C(=O)O` [Ceftazidime, reference compound] yielded an MIC [1] of 128 µg/mL (≈ 234 µM), an MIC [2] of no more than 0.125 µg/mL and an MIC [3] greater than 128 µg/mL. The MIC [4] was 1 µg/mL (≈ 1.83 µM), the MIC [5] was less than 0.5 µg/mL and the MIC [6] was greater than 128 µg/mL. For the same molecule, the MIC [7] was less than 0.5 µg/mL, the MIC [8] was 512 µg/mL (≈ 937 µM) and the MIC [9] was 8 µg/mL (≈ 14.6 µM). It also gave an MIC [10] of 128 µg/mL (≈ 234 µM), an MIC [11] of 32 µg/mL (≈ 58.5 µM) and an MIC [12] of 16 µg/mL (≈ 29.3 µM).

`O=C(O)c1cn(C2CC2)c2cc(N3CCNCC3)c(F)cc2c1=O` [Ciprofloxacin, reference compound] was tested, and the MIC [1] was 32 µg/mL (≈ 96.6 µM), the MIC [2] was no more than 0.125 µg/mL and the MIC [3] was 64 µg/mL (≈ 193 µM). It also gave an MIC [4] of 0.5 µg/mL (≈ 1.51 µM), an MIC [5] of 0.5 µg/mL (≈ 1.51 µM) and an MIC [6] of 128 µg/mL (≈ 386 µM). For the same molecule, the MIC [7] was less than 0.5 µg/mL, the MIC [8] was 0.5 µg/mL (≈ 1.51 µM) and the MIC [9] was 8 µg/mL (≈ 24.1 µM). For the same molecule, the MIC [10] was 64 µg/mL (≈ 193 µM), the MIC [11] was 64 µg/mL (≈ 193 µM) and the MIC [12] was 1 µg/mL (≈ 3.02 µM).

For `CC[C@H](C)[C@H](NC(=O)[C@H](C)NC(=O)CNC(=O)[C@H](C)NC(=O)[C@H](CCCCN)NC(=O)[C@H](CO)NC(=O)[C@H](C)NC(=O)[C@H](CCSC)NC(=O)CN)C(=O)N[C@@H](C)C(=O)NCC(=O)N[C@@H](CCCCN)C(=O)N[C@H](C(=O)N[C@@H](C)C(=O)N[C@@H](CCCCN)C(=O)N[C@H](C(=O)N[C@@H](C)C(=O)N[C@@H](CC(C)C)C(=O)N[C@@H](CCCCN)C(=O)N[C@@H](C)C(=O)N[C@@H](CC(C)C)C(N)=O)C(C)C)[C@@H](C)CC` [DRAMP02272a] (H-GMASKAGAIAGKIAKVALKAL-NH2), the “Modal MIC” value ([1]; E. coli LEC001 (R), shown in µM) was 4 µM, the “Modal MIC” value ([2]; E. coli NCTC 12923 (S), shown in µM) was 2 µM and the “Modal MIC” value [3, 19] was greater than 128 µg/mL. The “Modal MIC” value ([3]; shown in µM) was greater than 64 µM, the “Modal MIC” value [4, 19] was greater than 128 µg/mL and the “Modal MIC” value ([4]; shown in µM) was greater than 64 µM. The “Modal MIC” value ([5]; A. baumannii ATCC 17978 (S), shown in µM) was 2 µM, the “Modal MIC” value ([6]; A. baumannii AYE (R), shown in µM) was 1 µM and the “Modal MIC” value ([7]; K. pneumoniae M6 (S), shown in µM) was 16 µM. The “Modal MIC” value ([8]; K. pneumoniae NCTC 13368 (R), shown in µM) was 32 µM, the “Modal MIC” value ([9]; S. aureus (MRSA) 1199B (R), shown in µM) was 32 µM and the “Modal MIC” value ([10]; S. aureus (MRSA) NCTC 13616 (R), shown in µM) was 8 µM. The “Modal MIC” value ([11]; S. aureus (MRSA) USA300 (R), shown in µM) was 16 µM, the “Modal MIC” value ([12]; S. aureus (MSSA) ATCC 9144 (S), shown in µM) was 4 µM and the “Modal MIC50” value ([13]; 50% growth inhibition, RPMI 1640 + 2% glucose, 37 °C, 20 h, OD600) was greater than 128 µg/mL. For the same molecule, the “Modal MIC90” value ([13]; 90% growth inhibition, RPMI 1640 + 2% glucose, 37 °C, 20 h, OD600) was greater than 128 µg/mL, the “Modal MIC50” value ([13]; shown in µM) was greater than 64 µM and the “Modal MIC90” value ([13]; shown in µM) was greater than 64 µM. The “Modal MIC50” value [14, 20] was greater than 128 µg/mL, the “Modal MIC90” value [14, 21] was greater than 128 µg/mL and the “Modal MIC50” value ([14]; shown in µM) was greater than 64 µM. For the same molecule, the “Modal MIC90” value ([14]; shown in µM) was greater than 64 µM, the “Modal MIC50” value [15, 20] was greater than 128 µg/mL and the “Modal MIC90” value [15, 21] was greater than 128 µg/mL. For the same molecule, the “Modal MIC50” value ([15]; shown in µM) was greater than 64 µM, the “Modal MIC90” value ([15]; shown in µM) was greater than 64 µM and the “Modal MIC50” value [16] was 64 µM. The “Modal MIC90” value [16] was 64 µM, the “Modal MIC50” value [17, 20] was greater than 128 µg/mL and the “Modal MIC90” value [17, 21] was greater than 128 µg/mL. The “Modal MIC50” value ([17]; shown in µM) was greater than 64 µM, the “Modal MIC90” value ([17]; shown in µM) was greater than 64 µM and the “Modal MIC50” value [18] was 16 µM. The “Modal MIC90” value [18] was 16 µM.
